Test results from patent US20210386729A1, “METHODS FOR TREATING LIVER DISORDERS USING FXR AGONISTS” (NOVARTIS AG, priority 2016, published 2021).
≈ marks a conversion by molar mass, not a printed value. Entries after “also recorded” stand apart in the source; their conditions may differ. Like-named read-outs stand apart in the source and are kept apart here.

Experiments:
[1] = Single oral dose plasma pharmacokinetics in healthy subjects; assay type: in vivo, human; settings: for CL/F / AUC(0-inf) / AUC(0-t) / Cmax / half-life / Tmax: healthy subjects, plasma; for AUC(0-inf) / AUC(0-t) / Cmax / half-life / Tmax: human
[2] = Human efficacy dose calculation from rat efficacious exposure
Experimental: The human efficacy dose was calculated based on the efficacious exposure in the rat ANIT-induced disease model. Since the in vitro potency and protein binding between human and rat were similar, the EC80 exposure in human was assumed to be the same as that in rat (3.05 ng*h/mL).

[3] = Food effect (high-fat meal vs fasted) on pharmacokinetics; assay type: in vivo, human; settings: taken with a high-fat meal
Experimental: To avoid variability in drug exposure, it is recommended that throughout the treatment period, patients will be directed to take study drug at home with ˜240 mL (8 ounces) of water in the morning in a fasting state, at least 30 min prior to the first beverage apart from water and 60 min prior to first meal of the day, preferably at the same time of the day.

[4] = system: rat ANIT-induced cholestasis chronic treatment model; test: PK/PD modeling of effective exposure in rat ANIT-induced cholestasis chronic treatment model; assay type: in vivo
Experimental: Male Wistar rats were treated with ANIT (0.1% ANIT in chow diet) for 2 weeks. […] The serum samples were collected on day 14 for analysis of biomarkers of hepatobiliary injury (including ALT, AST, bilirubin and bile acids). The PK samples (pre-dose, 0.5, 1, 3, 7, 10 and 24 h, n=3/dose group) were taken on day 13 (at steady-state). […] The mean biomarker data were compared to the PK data (average concentration at each dose) for the modeling. The IC80 was determined using the Inhibitory effect Imax model (effect C=0 at Imax, C=infinity at E0) built in Phoenix WinNonlin 6.3 software. […] Therefore, we chose to use a mean of the IC80 for the four biomarkers (total bilirubin, total bile acids, ALT and AST) as the IC80 for efficacy in this model. From these studies, the IC80 of LJN452 was 0.127 ng/ml and the corresponding AUC0-24 h was 3.05 ng*h/ml (Table 1), and the corresponding efficacious dose is approximately 0.01 mg/kg (based on Table 1 and Table 2).
E0, effect at zero drug concentration; Imax, maximal drug effect; IC80, drug concentration producing 80% of the maximum effect.
The PK samples (pre-dose, 0.5, 1, 3, 7, 10 and 24 h, n=3/dose group) were taken on day 13 (at steady-state). AUC0-24 h was determined using Phoenix WinNonlin 6.3 software and the average concentrations were calculated from mean of AUC0-24 h at each dose (divided the AUC0-24 h by 24 h). The individual biomarker data were compared to the PK data (average concentration at each dose) for the modeling. Since the lowest dose (0.01 mg/kg) already approached maximal efficacy, the IC80 was chosen as the measurement of the efficacious exposure (Table 1). The IC80 was determined using the Inhibitory effect Imax model (effect C=0 at Imax, C=infinity at E0) built in Phoenix WinNonlin 6.3 software.
E0: effect at zero drug concentration; Imax: maximal drug effect IC80, drug concentration producing 80% of the maximum effect.

FGF19 = settings: healthy subjects, single and repeated dosing
[5] = system: rat alpha-naphthyl-isothiocyanate (ANIT) model; test: Chronic treatment rat ANIT model, serum markers of cholestasis and liver damage; assay type: in vivo; settings: 14 days oral dosing
Experimental: This model was utilized because it recapitulates many features of cholestasis observed in human PBC. In rats, ANIT-treatment leads to hepatic inflammatory cell infiltrate, bile duct hyperplasia, necrosis of bile duct epithelium, expansion of the hepatic portal region, hepatic fibrosis, hepatocellular necrosis and elevated levels of circulating bile acids, bilirubin, ALT, AST and GGT. These features are similar to subjects with advanced PBC.
Rats were treated with alpha-naphthyl-isothiocyanate (ANIT) (0.1% w/w) in food for 3 days prior to treatment with the compound at the indicated doses or with vehicle control (“Veh”). A non-cholestatic control group was fed standard chow diet without ANIT, and serve as the non-cholestatic control animals (“Control”). After 14 days of oral dosing, the indicated analyte was measured in serum. LLQ, lower limit of quantitation. Mean±SEM; n=5.

[6] = Safety and tolerability in healthy subjects; assay type: in vivo, human
[7] = 10 ug, single oral dose 10 μg, fasted, mean
[8] = 30 ug, single oral dose 30 μg, fasted, mean
[9] = 100 ug, single oral dose 100 μg, fasted, mean
[10] = 300 ug, single oral dose 300 μg, fasted, mean
[11] = 1000 ug, single oral dose 1000 μg, fasted, mean
[12] = 3000 ug, single oral dose 3000 μg, fasted, mean
[13] = effect at zero drug concentration, 2-week rat ANIT model, serum
[14] = maximal drug effect, 2-week rat ANIT model, serum
[15] = clinical study in healthy subjects

O=C(O)c1cc(F)c2nc(N3C4CC[C@H]3CC(OCc3c(-c5ccccc5OC(F)(F)F)noc3C3CC3)C4)sc2c1 (stereo partly drawn) [Compound A]
CL/F ([1]; single oral dose 10 μg, fasted, mean): 2.98 L/h | CL/F ([1]; single oral dose 30 μg, fasted, mean): 2.26 L/h | CL/F ([1]; single oral dose 100 μg, fasted, mean): 3.08 L/h | CL/F ([1]; single oral dose 300 μg, fasted, mean): 3.21 L/h | CL/F ([1]; single oral dose 1000 μg, fasted, mean): 2.43 L/h | CL/F ([1]; single oral dose 3000 μg, fasted, mean): 3.63 L/h | AUC(0-inf) [1, 7]: 3.39 ng·h/mL | AUC(0-t) [1, 7]: 2.79 ng·h/mL | Cmax [1, 7]: 0.186 ng/mL | half-life ([1]; 10 ug, single oral dose 10 μg, fasted, mean, read-out: T1/2 (converted)): 14.9 h | Tmax ([1]; 10 ug, single oral dose 10 μg, fasted, median, read-out: Tmax): 4 h | AUC(0-inf) [1, 8]: 13.4 ng·h/mL | AUC(0-t) [1, 8]: 12.7 ng·h/mL | Cmax [1, 8]: 0.627 ng/mL | half-life ([1]; 30 ug, single oral dose 30 μg, fasted, mean, read-out: T1/2 (converted)): 13.7 h | Tmax ([1]; 30 ug, single oral dose 30 μg, fasted, median, read-out: Tmax): 4 h | AUC(0-inf) [1, 9]: 37.9 ng·h/mL | AUC(0-t) [1, 9]: 34.8 ng·h/mL | Cmax [1, 9]: 1.73 ng/mL | half-life ([1]; 100 ug, single oral dose 100 μg, fasted, mean, read-out: T1/2 (converted)): 13.5 h | Tmax ([1]; 100 ug, single oral dose 100 μg, fasted, median, read-out: Tmax): 4 h | AUC(0-inf) [1, 10]: 123 ng·h/mL | AUC(0-t) [1, 10]: 119 ng·h/mL | Cmax [1, 10]: 6.41 ng/mL | half-life ([1]; 300 ug, single oral dose 300 μg, fasted, mean, read-out: T1/2 (converted)): 15.3 h | Tmax ([1]; 300 ug, single oral dose 300 μg, fasted, median, read-out: Tmax): 4 h | AUC(0-inf) [1, 11]: 482 ng·h/mL | AUC(0-t) [1, 11]: 416 ng·h/mL | Cmax [1, 11]: 22.1 ng/mL | half-life ([1]; 1000 ug, single oral dose 1000 μg, fasted, mean, read-out: T1/2 (converted)): 21.9 h | Tmax ([1]; 1000 ug, single oral dose 1000 μg, fasted, median, read-out: Tmax): 4 h | AUC(0-inf) [1, 12]: 933 ng·h/mL | AUC(0-t) [1, 12]: 888 ng·h/mL | Cmax [1, 12]: 54.2 ng/mL | half-life ([1]; 3000 ug, single oral dose 3000 μg, fasted, mean, read-out: T1/2 (converted)): 16.5 h | Tmax ([1]; 3000 ug, single oral dose 3000 μg, fasted, median, read-out: Tmax): 4 h | Tmax ([1]; single oral dose, fasted, read-out: median Tmax): 4 h | half-life ([1]; single oral dose, range across doses, read-out: mean apparent terminal elimination half-life): 13 to 22 h | dose proportionality of mean Cmax and AUCinf ([1]; single dose, dose range 10 μg to 3000 μg): approximately dose proportional increase | Cmax at estimated human efficacious dose ([2]; at dose of ~6 μg): ~0.2 ng/mL | EC80 exposure ([2]; rat value, human assumed to be the same): 3.05 ng·h/mL | Tmax ([3]; human, plasma, oral, read-out: median Tmax): 9 h | increase of mean AUCinf compared to the fasted state [3]: approximately 60% | increase of mean Cmax compared to the fasted state [3]: approximately 60% | Mean (efficacious AUC0-24 h) ([4]; AUC0-24 h corresponding to mean IC80, rat ANIT model): 3.05 ng·h/mL | IC80 ([4]; drug concentration producing 80% of the maximum effect, rat ANIT model, read-out: IC80, ALT): 0.054 ng/mL (≈ 0.0895 nM) | IC80 ([4]; drug concentration producing 80% of the maximum effect, rat ANIT model, read-out: IC80, AST): 0.076 ng/mL (≈ 0.126 nM) | IC80 ([4]; drug concentration producing 80% of the maximum effect, rat ANIT model, read-out: IC80, Total bile acids): 0.155 ng/mL (≈ 0.257 nM) | IC80 ([4]; drug concentration producing 80% of the maximum effect, rat ANIT model, read-out: IC80, Total bilirubin): 0.223 ng/mL (≈ 0.369 nM) | E0, ALT [4, 13]: 138.2 U/L | E0, AST [4, 13]: 272.8 U/L | E0, Total bile acids [4, 13]: 147.8 µmol/L | E0, Total bilirubin [4, 13]: 2.3 mg/dL | Imax, ALT [4, 14]: 84.2 U/L | Imax, AST [4, 14]: 140.3 U/L | Imax, Total bile acids [4, 14]: 125.5 µmol/L | Imax, Total bilirubin [4, 14]: 2.0 mg/dL | IC80 ([4]; mean of IC80 for total bilirubin, total bile acids, ALT and AST, rat ANIT model, read-out: Mean (IC80)): 0.127 ng/mL (≈ 0.21 nM) | corresponding efficacious dose ([4]; rat ANIT model, based on Table 1 and Table 2): approximately 0.01 mg/kg | FGF19 response to dose (FGF19): Dose-dependent increases; also recorded: continues to rise with increasing Compound A doses beyond 100 μg | serum bile acid concentrations [5]: Marked reductions | serum bilirubin concentrations [5]: Marked reductions | hepatobiliary injury indicators (AST, ALT, bilirubin, bile acids) in serum ([5]; 0.01 to 3 mg/kg): improved many of these indicators starting at doses as low as 0.01 mg/kg | elevation of transaminases (ALT and AST), number of subjects ([6]; 100 μg repeated daily): 3 subjects | ALP or bilirubin ([6]; 100 μg repeated daily, any subject): no elevation | time for elevated ALT to resolve to within normal levels ([6]; 100 μg, without intervention): ≤ 14 days | adverse events related to itch [6, 15]: no adverse events related to itch | physical exam, vital signs or ECGs [6, 15]: No significant findings | tolerability ([6]; repeated daily administration, doses up to and including 60 μg): well tolerated | BSEP gene expression levels (FXR target genes; rat liver): significant, dose-dependent increases | SHP gene expression levels (FXR target genes; rat liver): significant, dose-dependent increases | estimated effective dose (mean ED and median ED) (FXR target genes; rats treated two weeks, FXR target gene induction/repression in liver and ileum, day 14): approximately 0.01 mg/kg
